Our source for the IC50 values is patent US20240059703A1 (AMGEN INC., priority 2021, published 2024).

The test system of test [1] is A549 (human lung carcinoma) cells. The test is described as follows: Cell Viability Assay (CellTiter-Glo), A549. It is filed as cell-based. Put shortly:
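RPMI 1640/10% FBS; seed 1.67E+04 cells/mL, o/n 37° C., 5% CO2; serial-dilution cmpd 72 h; CellTiter-Glo luminescence vs DMSO; 4-parameter logistic fit → IC50.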
A general note: In ATP-based viability assays light output follows the ATP content of the culture.

Test [2] addresses KRAS G12C (Homo sapiens (Human), UniProt P01116, C118A/G12C). The test is described as follows: 2 h coupled exchange assay. The format is biochemical. The protocol: The term “2 h coupled exchange assay” or “20 h coupled exchange assay” as used herein refers to the assay described in the Section entitled “BIOLOGICAL EVALUATION.”
In test [3] the test system is MIA PaCa-2 (human pancreatic carcinoma) cells. The test is described as follows: Cell Viability Assay (CellTiter-Glo), MIA PaCa-2. It is filed as cell-based. On the procedure: Serially-diluted compound or DMSO was added to the cells, and plates were incubated at 37° C., 5% CO2 for 72 h. Cell viability was measured using a CellTiter-Glo® Luminescent Cell Viability Assay kit (Promega) according to the manufacturer's protocol. The luminescence signal of treated samples was normalized to DMSO control, and data were analyzed using a 4-parameter logistic model to calculate IC50 values.

[4] abbreviates: Avg 2 h Coupled exchange IC50, 2 h compound pre-incubation.
Setting [5] is: Avg 2 h Coupled exchange IC50, 2 h compound pre-incubation, SOS-mediated nucleotide exchange.

Read-outs that look alike come from different tables or passages of the source.

Chain of KRAS G12C (P01116 other isoform, or with tags, fused parts or gaps G12C/C118A): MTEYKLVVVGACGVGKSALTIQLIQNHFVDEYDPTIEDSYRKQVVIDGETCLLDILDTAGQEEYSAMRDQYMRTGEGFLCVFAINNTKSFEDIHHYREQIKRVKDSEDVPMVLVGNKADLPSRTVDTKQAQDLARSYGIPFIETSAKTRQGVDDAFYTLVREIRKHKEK

Broadly, the IC50 is the concentration at which inhibition is half-maximal. On to `C=CC(=O)N1CC2(CCN(c3nc4c(c(-c5cc(O)cc6ccccc56)c3C)COC(C)(C)C4)C2)C1` [Example 14-26, 1-(6-(4-(3-hydroxy-1-naphthalenyl)-3,7,7-trimethyl-7,8-dihydro-5H-pyrano[4,3-b]pyridin-2-yl)-2,6-diazaspiro[3.4]octan-2-yl)-2-propen-1-one], for which the 50% inhibitory concentration (IC50) is above 5000 nM in test [1] (Homo sapiens, A549, 72 h); 67 nM in test [2] (setting [4]); 76 nM in test [3] (Homo sapiens, MIA PaCa-2, 72 h).

On to `C=CC(=O)N1CC2(CCN(c3nc4c(c(-c5c(F)ccc6[nH]ncc56)c3C#N)COC(C)(C)C4)C2)C1` [Example 13-149, 4-(5-fluoro-1H-indazol-4-yl)-7,7-dimethyl-2-(2-(2-propenoyl)-2,6-diazaspiro[3.4]octan-6-yl)-7,8-dihydro-5H-pyrano[4,3-b]pyridine-3-carbonitrile], for which the 50% inhibitory concentration (IC50) stood at 11200 nM in test [1] (Homo sapiens, A549, 72 h); 276 nM in test [2] (setting [5]); 616 nM in test [3] (Homo sapiens, MIA PaCa-2, 72 h).

On to `C=CC(=O)N1CC2(CCN(c3nc4c(c(-c5c(C)ccc6cn[nH]c56)c3C#N)COC(C)(C)C4)C2)C1` (single isomer, unassigned) [Example 14-81, (P)-7,7-dimethyl-4-(6-methyl-1H-indazol-7-yl)-2-(2-(2-propenoyl)-2,6-diazaspiro[3.4]octan-6-yl)-7,8-dihydro-5H-pyrano[4,3-b]pyridine-3-carbonitrile], for which the IC50 in test [1] (Homo sapiens, A549, 72 h) is above 5000 nM; in test [2] (setting [4]), 45 nM; in test [3] (Homo sapiens, MIA PaCa-2, 72 h) it was 92 nM.

Turning to `C=CC(=O)N1CC2(CCN(c3cc4c(c(-c5c(C)ccc6[nH]ncc56)c3C#N)COCC4)C2)C1` (single isomer, unassigned) [Example 2-100, (P)-8-(5-methyl-1H-indazol-4-yl)-6-(2-(2-propenoyl)-2,6-diazaspiro[3.4]octan-6-yl)-3,4-dihydro-1H-2-benzopyran-7-carbonitrile], the IC50 was above 5000 nM in test [1] (Homo sapiens, A549, 72 h); 33 nM in test [2] (setting [5]); 25 nM in test [3] (Homo sapiens, MIA PaCa-2, 72 h).

As for `C=CC(=O)N1CC2(CCN(c3nc4cc(-c5scnc5C)cnc4c(-c4ccccc4Cl)c3C#N)C2)C1` (single isomer, unassigned) [Example 20-9, (P)-4-(2-chlorophenyl)-7-(4-methyl-1,3-thiazol-5-yl)-2-(2-(2-propenoyl)-2,6-diazaspiro[3.4]octan-6-yl)-1,5-naphthyridine-3-carbonitrile], the results for the IC50 in test [1] (72 h), in test [2] (setting [4]) and in test [3] (72 h) were 3190 nM, 42 nM and 200 nM, respectively.

Regarding `C=CC(=O)N1CC2(CCN(c3nc4ccccc4c(-c4c(C)ccc5[nH]ncc45)c3C=C)C2)C1` (atropisomer, axis not shown; (P)) [Example 26-1, (P)-1-(6-(3-ethenyl-4-(5-methyl-1H-indazol-4-yl)-2-quinolinyl)-2,6-diazaspiro[3.4]octan-2-yl)-2-propen-1-one], the IC50 in test [1] (72 h) is above 5000 nM; in test [2] (read-out: Avg 2 h Coupled exchange IC50, 2 h compound pre-incubation), 140 nM; in test [3] (72 h) it was 919 nM.

For `C=CC(=O)N1CC2(CCN(c3nc4c(c(-c5ccccc5F)c3C#N)CCC3(c5scnc5C)C4C3(F)F)C2)C1` (stereo not drawn) [Example 23-37], the IC50 worked out at 14600 nM in test [1] (Homo sapiens, A549, 72 h); 179 nM in test [2] (setting [4]); 3120 nM in test [3] (Homo sapiens, MIA PaCa-2, 72 h).

`C=CC(=O)N1CC2(CCN(c3nc4c(c(-c5cccc(C)c5C)n3)CC[C@@H](c3scnc3C)C4)C2)C1` (single isomer, unassigned) [Example 22-1]: the IC50 in test [1] (Homo sapiens, A549, 72 h) was above 5000 nM; in test [2] (setting [4]), 38 nM; in test [3] (Homo sapiens, MIA PaCa-2, 72 h) it was 585 nM.

For `C=CC(=O)N1CC2(CCN(c3nc4c(c(-c5c(C)c(Cl)cc6cn[nH]c56)c3C#N)COC(C)(C)C4)C2)C1` [Example 14-91, 4-(5-chloro-6-methyl-1H-indazol-7-yl)-7,7-dimethyl-2-(2-(2-propenoyl)-2,6-diazaspiro[3.4]octan-6-yl)-7,8-dihydro-5H-pyrano[4,3-b]pyridine-3-carbonitrile], the IC50 in test [1] (Homo sapiens, A549, 72 h) was above 5000 nM; in test [2] (setting [4]), 16 nM; in test [3] (Homo sapiens, MIA PaCa-2, 72 h), 20 nM.
